Measured values published in ChEMBL document CHEMBL4418495, “Entpd5 inhibitors” (2012).
Active and inactive are the calls of the source.

What follows are compounds tested against T1, Nucleoside diphosphate phosphatase ENTPD5 (Homo sapiens) (UniProt O75356) (assay: Inhibition of human recombinant ENTPD5 expressed in insect cells assessed as reduction in UDP hydrolysis at 1 uM incubated for 1 hr in presence of UMP, GTP and ATP by Escherichia coli UMP kinase pyrH catalyzed UMP phosphorylation coupled luciferase assay).
T1 sequence (whole entry): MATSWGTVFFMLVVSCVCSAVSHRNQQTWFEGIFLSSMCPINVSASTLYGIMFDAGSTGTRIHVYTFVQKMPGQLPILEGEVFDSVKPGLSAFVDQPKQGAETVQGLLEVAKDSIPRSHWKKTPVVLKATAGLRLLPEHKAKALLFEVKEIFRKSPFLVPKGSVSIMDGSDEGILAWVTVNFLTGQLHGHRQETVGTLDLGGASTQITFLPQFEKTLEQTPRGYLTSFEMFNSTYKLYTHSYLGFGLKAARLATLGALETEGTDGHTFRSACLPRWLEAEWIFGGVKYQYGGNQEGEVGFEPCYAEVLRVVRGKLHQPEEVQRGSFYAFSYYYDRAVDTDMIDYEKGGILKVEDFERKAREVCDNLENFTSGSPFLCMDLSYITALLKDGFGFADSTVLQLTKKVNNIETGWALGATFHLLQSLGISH
`O=C1/C(=C/c2ccc(O)c([N+](=O)[O-])c2)SC(=S)N1c1cccc(C(F)(F)F)c1` was tested, and the inhibition was “Active”. For `O=C1/C(=C/c2ccc(O)cc2O)CCC/C1=C\c1ccc(O)cc1O`, the inhibition was “Active”. In the case of `COc1ccccc1/C=N\NC(=O)c1cc2c(C)nn(-c3ccccc3)c2s1`, the inhibition is reported as “Active”. For `O=C1NC(=S)NC(=O)C1=Cc1ccc(-c2ccc(Cl)c(Cl)c2)o1`, the inhibition was “Active”. With `CC(=O)c1ccc(-c2ccc(C=C3C(=O)N(C)C(=S)N(C)C3=O)o2)cc1` the inhibition was “Active”. For `C=CCN(CC(=O)N(Cc1ccc2c(c1)OCO2)Cc1coc2ccc(Cl)cc2c1=O)C(=O)c1cccc2ccccc12`, the inhibition was “Active”. In the case of `O=C1/C(=C/c2cc([N+](=O)[O-])cc(Br)c2O)SC(=S)N1c1ccc([N+](=O)[O-])cc1`, the inhibition is reported as “Active”.

These compounds were tested against T1, Nucleoside diphosphate phosphatase ENTPD5 (Homo sapiens) (assay: Inhibition of human recombinant ENTPD5 expressed in insect cells assessed as reduction in reduction in UDP hydrolysis by measuring inorganic phosphate release incubated for 1 hr by malachite green based assay).
In the case of `O=C1/C(=C/c2ccc(O)c([N+](=O)[O-])c2)SC(=S)N1c1cccc(C(F)(F)F)c1`, the inhibition is reported as “Active”. In the case of `O=C1/C(=C/c2ccc(O)cc2O)CCC/C1=C\c1ccc(O)cc1O`, the inhibition is reported as “Active”. In the case of `COc1ccccc1/C=N\NC(=O)c1cc2c(C)nn(-c3ccccc3)c2s1`, the inhibition is reported as “Active”. With `O=C1NC(=S)NC(=O)C1=Cc1ccc(-c2ccc(Cl)c(Cl)c2)o1` the inhibition was “Active”. `CC(=O)c1ccc(-c2ccc(C=C3C(=O)N(C)C(=S)N(C)C3=O)o2)cc1` was tested, and the inhibition was “Active”. For `C=CCN(CC(=O)N(Cc1ccc2c(c1)OCO2)Cc1coc2ccc(Cl)cc2c1=O)C(=O)c1cccc2ccccc12`, the inhibition was “Active”. `O=C1/C(=C/c2cc([N+](=O)[O-])cc(Br)c2O)SC(=S)N1c1ccc([N+](=O)[O-])cc1` was tested, and the inhibition was “Active”.

These compounds were tested on LNCaP (assay: Antitumor activity against human LNCAP cells xenografted in mouse assessed as reduction in cells left in matrigels at 1 to 100 mg/kg, ip dosed every other day and measured after 6 weeks by hematoxylin and eosin staining based microscopy).
Type: functional, organism-based
With `O=C1/C(=C/c2ccc(O)c([N+](=O)[O-])c2)SC(=S)N1c1cccc(C(F)(F)F)c1` the Activity was “Active”. For `O=C1/C(=C/c2ccc(O)cc2O)CCC/C1=C\c1ccc(O)cc1O`, the Activity was “Active”. With `COc1ccccc1/C=N\NC(=O)c1cc2c(C)nn(-c3ccccc3)c2s1` the Activity was “Active”. With `O=C1NC(=S)NC(=O)C1=Cc1ccc(-c2ccc(Cl)c(Cl)c2)o1` the Activity was “Active”.

What follows are compounds tested against T2, Ectonucleoside triphosphate diphosphohydrolase 5 (Mus musculus) (UniProt Q9WUZ9) (assay: Inhibition of ENTPD5 in PTEN knockout mouse MEF cells assessed as induction of ER stress by measuring increase in GRP78/BiP expression at 30 uM incubated for 24 hrs by Western blotting analysis).
T2 sequence (whole entry): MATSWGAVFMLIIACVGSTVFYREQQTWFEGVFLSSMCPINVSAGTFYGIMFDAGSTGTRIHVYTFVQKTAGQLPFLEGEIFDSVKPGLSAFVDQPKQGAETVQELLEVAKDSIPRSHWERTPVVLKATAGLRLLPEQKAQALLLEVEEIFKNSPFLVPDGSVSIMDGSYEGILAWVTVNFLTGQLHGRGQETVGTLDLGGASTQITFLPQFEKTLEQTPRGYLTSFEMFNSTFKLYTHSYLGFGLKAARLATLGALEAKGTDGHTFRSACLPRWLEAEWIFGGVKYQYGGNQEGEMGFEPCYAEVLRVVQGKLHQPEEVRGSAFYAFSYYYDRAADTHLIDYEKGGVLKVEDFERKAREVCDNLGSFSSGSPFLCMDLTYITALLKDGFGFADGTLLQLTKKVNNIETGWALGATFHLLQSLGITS
Type: cell-based
In the case of `O=C1/C(=C/c2ccc(O)c([N+](=O)[O-])c2)SC(=S)N1c1cccc(C(F)(F)F)c1`, the inhibition is reported as “Active”. In the case of `O=C1/C(=C/c2ccc(O)cc2O)CCC/C1=C\c1ccc(O)cc1O`, the inhibition is reported as “Active”. `COc1ccccc1/C=N\NC(=O)c1cc2c(C)nn(-c3ccccc3)c2s1` was tested, and the inhibition was “Active”. With `O=C1NC(=S)NC(=O)C1=Cc1ccc(-c2ccc(Cl)c(Cl)c2)o1` the inhibition was “Active”.

What follows are compounds tested against T1, Nucleoside diphosphate phosphatase ENTPD5 (Homo sapiens) (assay: Inhibition of human recombinant ENTPD5 expressed in insect cells assessed as reduction in UDP hydrolysis up to 10 uM incubated for 1 hr in presence of UMP, GTP and ATP by Escherichia coli UMP kinase pyrH catalyzed UMP phosphorylation coupled luciferase assay).
With `O=C1/C(=C/c2ccc(O)c([N+](=O)[O-])c2)SC(=S)N1c1cccc(C(F)(F)F)c1` the inhibition was “Dose-dependent effect”. `O=C1/C(=C/c2ccc(O)cc2O)CCC/C1=C\c1ccc(O)cc1O` was tested, and the inhibition was “Dose-dependent effect”. In the case of `COc1ccccc1/C=N\NC(=O)c1cc2c(C)nn(-c3ccccc3)c2s1`, the inhibition is reported as “Dose-dependent effect”. `O=C1NC(=S)NC(=O)C1=Cc1ccc(-c2ccc(Cl)c(Cl)c2)o1` was tested, and the inhibition was “Dose-dependent effect”. `CC(=O)c1ccc(-c2ccc(C=C3C(=O)N(C)C(=S)N(C)C3=O)o2)cc1` was tested, and the inhibition was “Dose-dependent effect”. In the case of `C=CCN(CC(=O)N(Cc1ccc2c(c1)OCO2)Cc1coc2ccc(Cl)cc2c1=O)C(=O)c1cccc2ccccc12`, the inhibition is reported as “Dose-dependent effect”. For `O=C1/C(=C/c2cc([N+](=O)[O-])cc(Br)c2O)SC(=S)N1c1ccc([N+](=O)[O-])cc1`, the inhibition was “Dose-dependent effect”.

These compounds were tested on LNCaP (assay: Antitumor activity against human LNCAP cells xenografted in mouse assessed as induction of tumor shrinkage at 1 to 100 mg/kg, ip dosed every other day and measured after 6 weeks by microscopy).
Type: functional, organism-based
For `O=C1/C(=C/c2ccc(O)c([N+](=O)[O-])c2)SC(=S)N1c1cccc(C(F)(F)F)c1`, the Activity was “Active”. In the case of `O=C1/C(=C/c2ccc(O)cc2O)CCC/C1=C\c1ccc(O)cc1O`, the Activity is reported as “Active”. `COc1ccccc1/C=N\NC(=O)c1cc2c(C)nn(-c3ccccc3)c2s1` was tested, and the Activity was “Active”. With `O=C1NC(=S)NC(=O)C1=Cc1ccc(-c2ccc(Cl)c(Cl)c2)o1` the Activity was “Active”.

What follows are compounds tested against T3, Uridylate kinase (Escherichia coli (strain K12)) (UniProt P0A7E9) (assay: Inhibition of recombinant Escherichia coli UMP kinase pyrH catalyzed UMP phosphorylation in presence of GTP and ATP incubated for 1 hr by luminescence based assay).
T3 sequence (whole entry): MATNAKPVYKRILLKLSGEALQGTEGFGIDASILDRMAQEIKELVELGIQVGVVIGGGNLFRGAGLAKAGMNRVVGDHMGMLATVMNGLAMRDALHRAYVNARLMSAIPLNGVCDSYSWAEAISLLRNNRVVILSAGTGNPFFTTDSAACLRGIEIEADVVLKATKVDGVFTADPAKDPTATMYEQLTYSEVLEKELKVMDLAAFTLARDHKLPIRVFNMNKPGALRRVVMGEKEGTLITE
With `O=C1/C(=C/c2ccc(O)c([N+](=O)[O-])c2)SC(=S)N1c1cccc(C(F)(F)F)c1` the inhibition was “inactive”. `O=C1/C(=C/c2ccc(O)cc2O)CCC/C1=C\c1ccc(O)cc1O` was tested, and the inhibition was “inactive”. In the case of `COc1ccccc1/C=N\NC(=O)c1cc2c(C)nn(-c3ccccc3)c2s1`, the inhibition is reported as “inactive”. With `O=C1NC(=S)NC(=O)C1=Cc1ccc(-c2ccc(Cl)c(Cl)c2)o1` the inhibition was “inactive”. For `CC(=O)c1ccc(-c2ccc(C=C3C(=O)N(C)C(=S)N(C)C3=O)o2)cc1`, the inhibition was “inactive”. In the case of `C=CCN(CC(=O)N(Cc1ccc2c(c1)OCO2)Cc1coc2ccc(Cl)cc2c1=O)C(=O)c1cccc2ccccc12`, the inhibition is reported as “inactive”. With `O=C1/C(=C/c2cc([N+](=O)[O-])cc(Br)c2O)SC(=S)N1c1ccc([N+](=O)[O-])cc1` the inhibition was “inactive”.
